Test results reported in patent publication US9051320B1, “Methods for the treatment of metabolic disorders by a selective small molecule autotaxin inhibitor” (PharmAkea, Inc., priority 2014, dated 2015).
Counter-ions that a name gives are not always drawn. Like-named read-outs stand apart in the source and are kept apart here.

How the values were obtained:
[1] = system: mice fed a normal diet or a high fat diet; settings: cited from earlier work; for glucose tolerance: injection
[2] = biological target: T1, human autotaxin (ATX) (Homo sapiens, UniProt Q13822); test: Human autotaxin assay (choline release from LPC, Hep3B conditioned media); type: biochemical; settings: LPC 14:0 100 uM
T1 construct: ATX activity is assayed in concentrated conditioned media from Hep3B human hepatocellular carcinoma cells; endogenous in cells; host or cells: Hep3B human hepatocellular carcinoma cells (20-fold concentrated conditioned medium)
Experimental: ATX activity is assayed in concentrated conditioned media from Hep3B human hepatocellular carcinoma cells by measuring the amount of choline released from the substrate, lysophosphatidylcholine (LPC) as it is cleaved to LPA. Conditioned media is collected from confluent Hep3B cells and concentrated 20-fold using Centriprep-30 filter devices (Millipore).

[3] = system: mice fed a high fat diet (HFD); test: Glucose tolerance test in mice fed a high fat diet; type: in vivo, C57B16/J male mice; settings: for total blood glucose AUC: after i.p. 1 g/kg glucose; for baseline glucose (fasting blood glucose): sodium salt
Experimental: C57B16/J male mice were fed a normal diet until 9-10 weeks of age. […] For determination of blood glucose, mice were administered test compound orally in 0.5% methocel once or twice daily for several days prior to the glucose challenge. Compounds were administered as a sodium salt. On the day of the glucose tolerance test (GTT) mice were fasted for 6-8 hours and a last dose of test compound administered orally 1-3 hours before the intraperitoneal (i.p.) injection of 1 g/kg D-glucose (Sigma). Blood from the tail vein was sampled before the glucose load (baseline glucose) and every 15-30 min over the next 120 min after the glucose challenge to monitor blood glucose concentration. Blood glucose was quantified using a glucose meter (Accu-Chek, Roche Diagnostics or AlphaTRAK, Abbott Animal Health) and plotted vs. time. Total blood glucose area under the curve (AUC) after the i.p. glucose challenge was calculated from the time plot using GraphPad Prism6.

[4] = chronic treatment, mice fed a high fat diet
[5] = 30 mg/kg oral twice daily for two days and once on the day of sampling
[6] = 30 mg/kg oral twice daily for two days prior to sampling and once on the day of sampling

Cc1noc(-c2ccc(CSCCC(=O)O)cc2)c1NC(=O)OC(C)c1ccccc1Cl (centres unmarked) [Ki16425]
capacity of a muscle to oxidize glucose [1, 4]: increases | fasting insulin levels [1, 4]: improves | insulin sensitivity [1, 4]: improves | liver glycogen storage [1, 4]: increases | glucose tolerance ([1]; mice fed a high fat diet): does significantly improve | glucose tolerance ([1]; mice fed a normal diet): does not significantly improve

CCn1cc(-n2c(C3CC3)c(Sc3cccc(C(=O)O)n3)c3ccc(Cl)c(F)c32)cn1 [Compound D, 6-((6-chloro-2-cyclopropyl-1-(1-ethyl-1H-pyrazol-4-yl)-7-fluoro-1H-indol-3-yl)thio)picolinic acid sodium salt]
IC50 [2]: < 500 nM | total blood glucose AUC [3, 5]: decrease | baseline glucose (fasting blood glucose) [3, 6]: decrease

Cc1c(Sc2cccc(C(=O)O)c2F)c2ccc(Cl)c(F)c2n1CC(=O)N1CCC(O)(C(F)(F)F)C1 (single isomer, unassigned) [Compound E]
baseline glucose (fasting blood glucose) ([3]; 30 mg/kg oral once daily for 5 days prior to sampling): decrease

O=C(O)CCN1C(=O)[C@@H]2Cc3c(n(Cc4ccc(F)cc4)c4ccccc34)CN2C1=O [Compound A, (S)-3-(6-(4-fluorobenzyl)-1,3-dioxo-5,6,11,11a-tetrahydro-1H-imidazo [1′,5′:1,6]pyrido[3,4-b]indol-2(3H)-yl)propanoic acid]
total blood glucose AUC [3, 5]: decrease | baseline glucose (fasting blood glucose) [3, 6]: decrease

CCCn1cc(-n2c(Cl)c(Sc3cccc(C(=O)O)c3F)c3ccc(Cl)c(F)c32)cn1 [Compound C, 3-((2,6-dichloro-7-fluoro-1-(1-propyl-1H-pyrazol-4-yl)-1H-indol-3-yl)thio)-2-fluorobenzoic acid]
total blood glucose AUC ([3]; 15 mg/kg oral twice daily for two days and once on the day of sampling): decrease | baseline glucose (fasting blood glucose) ([3]; 15 mg/kg oral twice daily for two days prior to sampling and once on the day of sampling): decrease
